From patent publication US20250304549A1, “HYDROXYAMIDE DERIVATIVE AND USE THEREOF” (SICHUAN HUIYU PHARMACEUTICAL CO., LTD., priority 2022, published 2025) come the findings set out here.

One experiment has as its target LSD1 (Homo sapiens (Human), UniProt O60341). As to the kind of experiment: In vitro enzyme inhibition assay - LSD1 (HTRF). Format: biochemical. For orientation: Time-resolved FRET reads energy transfer from a long-lived donor to a nearby acceptor.
A further experiment deals with HDAC1 (Homo sapiens (Human), UniProt Q13547). The experiment in a line: In vitro enzyme inhibition assay - HDAC (HDAC-Glo I/II), HDAC1. Format: biochemical. As to conditions: read-out: HDAC IC50 (nM) HDAC 1. As for the experimental part:
2. In Vitro Enzyme Inhibition Assay—HDAC
The effect of the compound on the enzymatic activity of pan-HDAC and two isoforms (HDAC1 and HDAC8) was examined using the HDAC-Glo I/II Assay and Screening System assay to assess the level of inhibition of HDAC protease activity and selectivity in each isoform. The proteins and detection reagents were from the HDAC-Glo™ I/II Assay and Screening System (Promega). A 1 mM stock solution of the compound was prepared in DMSO and diluted in a 5-fold gradient to create a series of 8 concentrations, and a specific volume of the highest concentration was diluted 25 times with HDAC Buffer to obtain 4× working solution of the compound. […] The 384-well plate was then read on a multifunctional microplate reader, with the Luminescence channel selected to record Luminescence values (RLU). The inhibition rate was calculated using the following formula: […]
Note: ‘Negative’ refers to the group without the inhibitor; ‘Blank’ refers to the group without the enzyme.
The IC50 value was calculated by fitting the inhibition rate by GraphPad Prism software, employing log (inhibitor) vs. response-Variable Slope (four parameters) model.

The test system of a further experiment is NCI-H526 cells. The experiment in a line: In vitro cell inhibition assay - NCI-H526 cell proliferation (CellTiter-Glo). Format: cell-based. As to conditions: Homo sapiens, NCI-H526, 120 h, H526 small cell lung cancer cell proliferation, 5 days. In short, it runs like this:
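NCI-H526 cells plated at 1×10^3 per well overnight, then treated with 8 concentrations (5-fold dilutions) in RPMI-640 with 10% FBS for 5 days at 37° C., 5% CO2. Viable cells quantified by CellTiter-Glo luminescence; IC50 fitted from inhibition rates relative to no-inhibitor and no-cell controls.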
A general note: Cellular ATP, detected with luciferase, serves as a proxy for viable cell number.

For a further experiment, the system named is NCI-H69 cells. As to the kind of experiment: In vitro cell inhibition assay - NCI-H69 cell proliferation (CellTiter-Glo). It is filed as cell-based. The settings on record: Homo sapiens, NCI-H69, H69 small cell lung cancer cell proliferation. An outline of the steps: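 Over 7 days at 37° C. and 5% CO2, cells grew in RPMI-640 supplemented with 20% FBS in the presence of eight 5-fold-spaced compound concentrations.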

Another experiment addresses HDAC8 (Homo sapiens (Human), UniProt Q9BY41). The experiment in a line: In vitro enzyme inhibition assay - HDAC (HDAC-Glo I/II), HDAC8. As to conditions: read-out: HDAC IC50 (nM) HDAC 8. It is filed as biochemical. In short, it runs like this:
(§1)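 Eight compound concentrations (5-fold gradient; 1 mM DMSO stock) were assayed by HDAC-Glo I/II luminescence. IC50 was obtained by four-parameter fitting.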

A further experiment concerns the target pan-HDAC. The experiment in a line: In vitro enzyme inhibition assay - HDAC (HDAC-Glo I/II), pan-HDAC. Format: biochemical. An outline of the steps:
as §1

A further experiment concerns NCI-H1417 cells. The experiment in a line: In vitro cell inhibition assay - H1417 cell proliferation (CellTiter-Glo). It is filed as cell-based. As to conditions: Homo sapiens, NCI-H1417, H1417 small cell lung cancer cell proliferation. In short, it runs like this: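 Cells exposed to 8 compound concentrations (5-fold dilutions) in BEGM with 10% FBS for 7 days at 37° C., 5% CO2. Viable cells measured by CellTiter-Glo luminescence; inhibition versus no-inhibitor and no-cell controls, IC50 fitted.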

The structures appear in SMILES notation. Structures can show the parent of a compound that is named as a salt.

Chain of HDAC8 (Q9BY41 whole entry): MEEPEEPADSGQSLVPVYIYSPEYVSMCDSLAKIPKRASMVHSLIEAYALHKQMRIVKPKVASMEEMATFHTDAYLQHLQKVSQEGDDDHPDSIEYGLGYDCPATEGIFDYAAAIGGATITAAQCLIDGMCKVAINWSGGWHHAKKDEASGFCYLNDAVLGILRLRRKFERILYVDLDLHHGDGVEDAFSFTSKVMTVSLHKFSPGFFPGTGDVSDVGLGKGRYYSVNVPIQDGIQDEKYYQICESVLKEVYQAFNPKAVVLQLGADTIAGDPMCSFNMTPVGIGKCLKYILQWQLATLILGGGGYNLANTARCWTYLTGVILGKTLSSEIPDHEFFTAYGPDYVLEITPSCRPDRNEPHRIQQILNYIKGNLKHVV
Chain of HDAC1 (Q13547 whole entry): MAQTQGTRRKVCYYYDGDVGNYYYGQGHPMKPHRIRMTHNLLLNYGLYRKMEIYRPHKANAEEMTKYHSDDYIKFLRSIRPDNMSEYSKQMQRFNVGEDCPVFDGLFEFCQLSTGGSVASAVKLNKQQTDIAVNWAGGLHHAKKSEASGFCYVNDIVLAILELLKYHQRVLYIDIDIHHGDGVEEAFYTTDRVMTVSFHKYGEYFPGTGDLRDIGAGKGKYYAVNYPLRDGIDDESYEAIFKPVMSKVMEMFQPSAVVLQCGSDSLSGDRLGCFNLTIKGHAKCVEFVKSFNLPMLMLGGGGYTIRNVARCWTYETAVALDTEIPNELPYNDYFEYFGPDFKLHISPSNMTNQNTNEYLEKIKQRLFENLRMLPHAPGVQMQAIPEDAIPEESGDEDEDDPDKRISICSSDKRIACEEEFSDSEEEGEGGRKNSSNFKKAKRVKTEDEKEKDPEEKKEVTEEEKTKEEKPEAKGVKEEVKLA

Turning to `N#Cc1ccc(-c2c(-c3ccc(/C=C/C(=O)NO)c(O)c3)cnc(N3CCC(N)CC3)c2C#N)cc1F` [Example 62, (E)-3-(4-(6-(4-Aminopiperidin-1-yl)-5-cyano-4-(4-cyano-3-fluorophenyl)pyridin-3-yl)-2-hydroxyphenyl)-N-hydroxyacrylamide hydrochloride], the IC50 – broadly, the point on the concentration scale where inhibition reaches its midpoint – worked out at 0.49 nM against LSD1; 17.3 nM at HDAC1; 1210 nM in the experiment with NCI-H526 cells; 3220 nM in the experiment with NCI-H69 cells; 3190 nM on HDAC8; 5.53 nM at pan-HDAC. The IC50 with NCI-H1417 cells was determined as 9.86 nM.
Consider `COc1ccc(-c2cnc(N3CCC(NC(C)(C)c4ccc(/C=C/C(=O)NO)cc4)CC3)c(C#N)c2-c2ccc(C#N)c(F)c2)cc1O` [Example 179, (E)-3-(4-(2-((1-(3-Cyano-4-(4-cyano-3-fluorophenyl)-5-(3-hydroxy-4-methoxyphenyl)pyridin-2-yl)piperidin-4-yl)amino)propan-2-yl)phenyl)-N-hydroxyacrylamide formate], for which the IC50 came to 100 nM at LSD1; 1.74 nM at HDAC1; 4.44 nM in the experiment with NCI-H526 cells; 2.75 nM with NCI-H69 cells; 374 nM on HDAC8; 3.1 nM at pan-HDAC. The midpoint of inhibition with NCI-H1417 cells, the IC50, lay at 3.66 nM.
For the compound `COc1ccc(-c2cnc(N3CCC(NCc4ccc(OCC(=O)NO)cc4)CC3)c(C#N)c2-c2ccc(C#N)c(F)c2)cc1O` [Example 181], the concentration for half-maximal inhibition (IC50) was 0.13 nM at LSD1; 0.08 nM at HDAC1; 28.4 nM in the experiment with NCI-H526 cells; 13.1 nM with NCI-H69 cells; 75.1 nM on HDAC8; 2.11 nM against pan-HDAC. The same compound returned an IC50 with NCI-H1417 cells of 2.93 nM.
In the case of `N#Cc1ccc(-c2c(-c3ccc4cn[nH]c4c3)cnc(N3CCC(NCc4ccc(/C=C/C(=O)NO)nc4)CC3)c2C#N)cc1F` [Example 182, (E)-3-(5-(((1-(3-Cyano-4-(4-cyano-3-fluorophenyl)-5-(1H-indazol-6-yl)pyridin-2-yl)piperidin-4-yl)amino)methyl)pyridin-2-yl)-N-hydroxyacrylamide formate], the 50% inhibitory concentration (IC50) is 0.09 nM on LSD1; 1.3 nM on HDAC1; 7.04 nM in the experiment on NCI-H526 cells; 4.36 nM in the experiment with NCI-H69 cells; 30.1 nM at HDAC8; 3.02 nM against pan-HDAC. In the experiment on NCI-H1417 cells, this compound displayed a half-maximal inhibitory concentration (IC50) of 9.29 nM.
Take `N#Cc1ccc(-c2c(-c3ccc4cn[nH]c4c3)cnc(N3CCC(NCc4cnc(/C=C/C(=O)NO)nc4)CC3)c2C#N)cc1F` [Example 184, (E)-3-(5-((1-(3-Cyano-4-(4-cyano-3-fluorophenyl)-5-(1H-indazol-6-yl)pyridin-2-yl)piperidin-4-yl)amino)methyl) pyrimidin-2-yl)-N-hydroxyacrylamide formate]: the IC50 against LSD1 came to 0.09 nM; on HDAC1 it was 1.69 nM; in the experiment with NCI-H526 cells, 15.9 nM; with NCI-H69 cells, 8.97 nM; at HDAC8, 45.2 nM; against pan-HDAC it was 6.58 nM. In the experiment on NCI-H1417 cells, this compound displayed an IC50 of 10.2 nM.
Turning to `CC(C)(O)COc1ccc(-c2cnc(N3CCC(NCc4cnc(/C=C/C(=O)NO)nc4)CC3)c(C#N)c2-c2ccc(C#N)c(F)c2)cc1O` [Example 187, (E)-3-(5-(((1-(3-Cyano-4-(4-cyano-3-fluorophenyl)-5-(3-hydroxy-4-(2-hydroxy-2-methylpropoxy)phenyl)pyridin-2-yl)piperidin-4-yl)amino)methyl)pyrimidin-2-yl)-N-hydroxyacrylamide formate], the IC50 at LSD1 was 4.11 nM; on HDAC1, 1.98 nM; in the experiment with NCI-H526 cells, 20.9 nM; with NCI-H69 cells it was 14.8 nM; at HDAC8, 15.5 nM; at pan-HDAC, 3.71 nM. In the experiment on NCI-H1417 cells, this compound showed an IC50 of 4.89 nM.
Turning to `N#Cc1ccc(-c2c(-c3ccc(Cl)c(O)c3)cnc(N3CCC(NCc4ccc(/C=C/C(=O)NO)cn4)CC3)c2C#N)cn1` [Example 238, (E)-3-(6-((1-(5′-(4-Chloro-3-hydroxyphenyl)-3′,6-dicyano-[3,4′-bipyridin]-2′-yl)piperidin-4-yl)amino)methyl) pyridin-3-yl)-N-hydroxyacrylamide formate], the IC50 against LSD1 amounted to 3.48 nM; on HDAC1, 1.62 nM; in the experiment on NCI-H526 cells, 56.1 nM; in the experiment with NCI-H69 cells it was 28.7 nM; at pan-HDAC, 4.05 nM; with NCI-H1417 cells it was 25.7 nM.
Take `COc1cc(F)c(-c2cnc(N3CCC(NCc4ccc(/C=C/C(=O)NO)cn4)CC3)c(C#N)c2-c2ccc(C#N)nc2)cc1O` [Example 240, (E)-3-(6-(((1-(3′,6-Dicyano-5′-(2-fluoro-5-hydroxy-4-methoxyphenyl)-[3,4′-bipyridin]-2′-yl)piperidin-4-yl)amino)methyl)pyridin-3-yl)-N-hydroxyacrylamide formate]: the IC50 against LSD1 was found to be 0.82 nM; at HDAC1 it was 1.85 nM; with NCI-H526 cells it was 60.9 nM; with NCI-H69 cells it was 24.8 nM; against pan-HDAC, 4.73 nM; in the experiment on NCI-H1417 cells, 9.62 nM.
Regarding `N#Cc1ccc(-c2c(-c3ccc(Cl)c(O)c3)cnc(N3CCC(NCc4ccc(/C=C/C(=O)NO)cc4F)CC3)c2C#N)cn1` [Example 241, (E)-3-(4-(((1-(5′-(4-Chloro-3-hydroxyphenyl)-3′,6-dicyano-[3,4′-bipyridin]-2′-yl)piperidin-4-yl)amino)methyl)-3-fluorophenyl)-N-hydroxyacrylamide formate], the concentration for half-maximal inhibition (IC50) on LSD1 was 2.95 nM; at HDAC1, 1.86 nM; in the experiment on NCI-H526 cells, 11.2 nM; in the experiment on NCI-H69 cells it was 5.7 nM; against pan-HDAC, 7.81 nM; in the experiment on NCI-H1417 cells, 5.78 nM.
Regarding `COc1ccc(-c2cnc(N3CCC(NCc4ccc(/C=C/C(=O)NO)cc4)CC3)c(C#N)c2-c2cnc(C#N)c(OC)c2)cc1O` [Example 243, (E)-3-(4-(((1-(3′,6-Dicyano-5′-(3-hydroxy-4-methoxyphenyl)-5-methoxy-[3,4′-bipyridin]-2′-yl)piperidin-4-yl)amino)methyl)phenyl)-N-hydroxyacrylamide hydrochloride], the half-maximal inhibitory concentration (IC50) on LSD1 was determined as 13.6 nM; at HDAC1 it was 0.6 nM; in the experiment on NCI-H526 cells, 10.6 nM; with NCI-H69 cells it was 3.24 nM; at pan-HDAC, 1.74 nM; with NCI-H1417 cells it was 10.5 nM.
As for `N#Cc1ccc(-c2c(-c3ccc(N4CCOCC4)c(O)c3)cnc(N3CCC(NCc4ccc(/C=C/C(=O)NO)cc4)CC3)c2C#N)cn1` [Example 244, (E)-3-(4-(((1-(3′,6-Dicyano-5′-(3-hydroxy-4-morpholinophenyl)-[3,4′-bipyridin]-2′-yl)piperidin-4-yl)amino)methyl)phenyl)-N-hydroxyacrylamide formate], the IC50 at LSD1 was determined as 0.98 nM; on HDAC1, 0.51 nM; in the experiment on NCI-H526 cells, 16.2 nM; in the experiment on NCI-H69 cells, 1.66 nM; on pan-HDAC it was 1.54 nM; in the experiment with NCI-H1417 cells, 2.83 nM.
Consider `COc1ccc(-c2cnc(N3CCC(NCc4ccc(/C=C/C(=O)NO)cc4)CC3)c(C#N)c2-c2cnc(C#N)c(C)c2)cc1O` [Example 247, (E)-3-(4-(((1-(3′,6-Dicyano-5′-(3-hydroxy-4-methoxyphenyl)-5-methyl-[3,4′-bipyridin]-2′-yl)piperidin-4-yl)amino)methyl)phenyl)-N-hydroxyacrylamide formate], for which the concentration for half-maximal inhibition (IC50) at LSD1 is 3.49 nM; on HDAC1, 0.84 nM; in the experiment on NCI-H526 cells, 7.56 nM; in the experiment on NCI-H69 cells, 3.17 nM; against pan-HDAC it was 0.87 nM; in the experiment on NCI-H1417 cells, 4.93 nM.
For the compound `COc1ccc(-c2cnc(N3CCC(NCc4ccc(/C=C/C(=O)NO)cc4)CC3)c(C#N)c2-c2ccc([N+](=O)[O-])nc2)cc1O` [Example 248, (E)-3-(4-(((1-(3′-Cyano-5′-(3-hydroxy-4-methoxyphenyl)-6-nitro-[3,4′-bipyridin]-2′-yl)piperidin-4-yl)amino)methyl)phenyl)-N-hydroxyacrylamide formate], the IC50 turned out to be 0.81 nM at LSD1; 0.61 nM on HDAC1; 9.06 nM in the experiment with NCI-H526 cells; 3.94 nM in the experiment with NCI-H69 cells; 0.62 nM against pan-HDAC; 5.33 nM with NCI-H1417 cells.
